How the values were obtained:
[1] = Toxicity, single oral administration using rats; format: in vivo
Experimental: The toxicity of the compounds of the present invention is very low and therefore, the compounds may be considered safe for pharmaceutical use. For example, the minimal lethal dose by single oral administration of N-hydroxy-5-ethoxymethyloxy-2(S)-methyl-4(S)-(4-phenoxybenzoyl)aminopentanamide using rats was 2000 mg/kg.

[2] = tested on: blood vessel smooth muscle cells; experiment: Effect to inhibit growth of blood vessel smooth muscle cells (BrdU labeling index), hamster blood vessel stricture model; format: in vivo; details: oral, twice a day, 20 mg/kg/day; 7th day after the injury
Experimental: (§1) Preparation of Hamster Blood Vessel Stricture Model
(§2) Male hamsters (Gold, SLC, Japan; 40 to 50 g) were allowed to feed on 0.5% cholesterol feed for 4 weeks to increase the LDL value to 4 to 6 times higher than that of normal hamsters. Each hamster was anesthetized with pentobarbital (50 mg/kg), and its carotid inner membrane was peeled using 2FG catheter (Portex) whose tip had been roughly shaved.
(2) Effect to Inhibit Growth of Blood Vessel Smooth Muscle Cells
The drug to be tested, N-hydroxy-5-ethoxymethyloxy-2(S)-methyl-4(S)-(4-phenoxybenzoyl)aminopentaneamide represented by the above formula (II), was orally administered once before the blood vessel inner membrane injury, and then it was orally administered twice a day (20 mg/kg/day). 5-Bromo-2-deoxy-uridine (BrdU: 50 mg/kg) was injected by subcutaneous injection 1, 8, 16 or 24 hours before taking out the inner membrane-injured carotid from each hamster.
After the carotid injury, the injured blood vessels were taken out on the 1st and 7th days to prepare frozen samples. BrdU positive cells were stained with a mouse monoclonal antibody (SIGMA) and then with a peroxidase-conjugated goat anti-mouse IgG antibody and detected with diaminobenzidine (DAB). […] The BrdU labeling index of intermediate membrane and newly formed inner membrane was calculated by the following formula: [formula]

[3] = tested on: blood vessel smooth muscle cells; experiment: Effect to inhibit migration of blood vessel smooth muscle cells (histone H1 (+) cells), hamster blood vessel stricture model; format: in vivo; details: oral, twice a day, 20 mg/kg/day; 3, 5 and 7th days after carotid injury; in comparison with the control group
Experimental: as §1, §2
(3) Effect to Inhibit Migration of Blood Vessel Smooth Muscle Cells
Administration of the drug to be tested and BrdU was carried out in the same manner in the above (2).
The injured blood vessels were taken out from the hamsters on 3, 5 and 7th days after the carotid injury. Each blood vessel was washed with PBS and put into 0.3% hydrogen peroxide/cold methanol solution. The sample was incubated for 45 minutes in 5% goat serum diluted with 1% BSA-containing PBS to prevent nonselective linkage of protein. This was incubated for 60 minutes in 1% BSA-containing PBS using a histone H1 monoclonal antibody. Thereafter, each section was incubated for 45 minutes using 1% goat anti-mouse IgG antibody diluted with 1% BSA-containing PBS. By measuring the number of histone H1 (+) cells (cells/mm^2), migration of smooth muscle cells from intermediate membrane to inner membrane was evaluated.

smooth muscle cells = details: literature report; cited from earlier work

| Compound | minimal lethal dose [1] [mg/kg] | inhibition of growth of blood vessel smooth muscle cells (BrdU labeling index) [2] | number of smooth muscle cells on the surface of inner membrane (migration; histone H1 (+) cells) [3] | migration of smooth muscle cells (smooth muscle cells) | growth of smooth muscle cells (smooth muscle cells) |
| --- | --- | --- | --- | --- | --- |
| CCOCOC[C@H](C[C@H](C)C(=O)NO)NC(=O)c1ccc(Oc2ccccc2)cc1 [formula (II), N-hydroxy-5-ethoxymethyloxy-2(S)-methyl-4(S)-(4-phenoxybenzoyl)aminopentaneamide] | 2000 | significantly inhibited | significantly reduced |  |  |
| CNC(=O)[C@H](Cc1c[nH]c2ccccc12)NC(=O)[C@H](CC(=O)NO)CC(C)C [GM6001, 3-(N-hydroxycarbamoyl)-2(S)-isobutylpropionyl-L-tryptophan methylamide] |  |  |  | inhibits migration of smooth muscle cells |  |
| CNC(=O)[C@H](Cc1ccccc1)NC(=O)[C@H](CC(C)C)[C@H](CSc1cccs1)C(=O)NO [BB94, 3(S)-(N-hydroxycarbamoyl)-2(R)-isobutyl-4-(2-thienylthio)butynyl-L-phenylalanine methylamide] |  |  |  | inhibits migration and growth of smooth muscle cells dose-dependently | inhibits migration and growth of smooth muscle cells dose-dependently |

Source: patent publication US20040068015A1, “Remedies for diseases due to stenotic lesions of blood vessel” (priority 2003, published 2004)
